Assays:
LBP of AR-LBD = target: T1, LBP of AR-LBD (Rattus norvegicus, UniProt P15207); assay: AR competitive ligand binding assay (PolarScreen Androgen Receptor Competitor Assay Kit, fluorescence polarization); conditions: A-1 at 12.5 μM-200 μM; 4 hours incubation
T1 construct: a buffer containing AR-LBD (His-GST) and fluorescence ligand; purchased
T1 sequence (P15207 651-882 limits assumed): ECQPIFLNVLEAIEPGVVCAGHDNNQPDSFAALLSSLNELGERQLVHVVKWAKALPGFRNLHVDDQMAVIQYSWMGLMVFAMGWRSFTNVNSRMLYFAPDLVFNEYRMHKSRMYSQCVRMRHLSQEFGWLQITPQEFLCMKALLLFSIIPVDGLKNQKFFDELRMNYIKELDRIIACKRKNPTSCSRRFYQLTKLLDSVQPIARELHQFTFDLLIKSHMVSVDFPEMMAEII
Method: Detection principles: The binding affinities of compounds to the LBP of AR-LBD were evaluated using PolarScreen™ Androgen Receptor Competitor Assay Kit. […] The addition of a test compound to a microporous plate containing the binary complex would reduce fluorescence polarization values if the compound could target LBP of AR-LBD by competing the fluorescence ligand.
After 4 hours incubation in darkness at room temperature, the fluorescence polarization values were determined using a multifunctional microplate reader.

AR-LBD protein = target: T2, AR-LBD protein (Homo sapiens, UniProt P10275); assay: Biolayer interferometry (BLI) direct interaction; format: binding; conditions: A-1 2.06-500 μM, biotinylated AR-LBD
T2 construct: The biotinylated AR-LBD protein was dissolved in the buffer
T2 sequence (P10275 669-900 limits assumed): T1 sequence (P15207 651-882 limits assumed)
Method: Detection principles: The BLI technique can detect the interactions by monitoring the change of the interference spectrum in the sensor surface. BLI can quantitatively determine the binding and dissociation processes of a ligand to the target loaded sensor, by analyzing changes in the interference spectrum. Therefore, the direct interaction between ligand and target protein can be quantitatively detected.
Methods: The biotinylated AR-LBD protein was dissolved in the buffer of phosphate-buffered saline with 1% dimethyl sulfoxide. 200 μL of AR-LBD protein in the buffer was loaded onto sensors and equilibrated for 300 seconds. The kinetics of association between AR-LBD and A-1 were determined by soaking the AR-LBD loaded sensors into wells containing different concentrations of A-1 for 300 seconds, followed by soaking the sensors in the buffer for 180 seconds allow for dissociation. Finally, the ForteBio data analysis software was applied to calculate the kinetic binding constants (Ka, Kd, KD).

LNCaP xenograft = conditions: mouse, in vivo
Method: Methods: LNCaP cells were injected to the Male CB17 SCID mice (6-8 weeks old). Once tumor size reached target value, the mice were randomized into three groups with 6-8 mice per group. […] The mice weight and tumor volume were periodically recorded. Finally, the tumors were harvested.

What does the source list for `CC(=O)Cc1nsc(NC(=O)c2cc(-c3cccc(C(F)(F)F)c3)oc2C)n1` [Compound A-1, 2-Methyl-N-(3-(2-oxopropyl)-1,2,4-thiadiazol-5-yl)-5-(3-(trifluoromethyl)phenyl)furan-3-carboxamide]?
binding to the AR LBP (LBP of AR-LBD): did not bind to the AR LBP; Kd (AR-LBD protein): 143 µM; mortality (LNCaP xenograft): no mortality
